2 compounds from US8758474B2, “Urea fertilizer containing central volatilization inhibitor particles to reduce release of ammonia and processes for making same” (NFT Industries, LLC, priority 2010, dated 2014) can be followed below.

The test relates to enzymes in the soil. Briefly: Ammonia volatilization test (fertilizer applied to the surface of moist soil, ammonia captured in sulfuric acid and titrated). The settings on record: cumulative, percent of total starting nitrogen. From the text: Nitrogen lost, as ammonia, after soil application occurs over a long time period. The present volatilization test was designed to simulate and quantify processes in the soil. The volatilization test apparatus and procedure utilized to evaluate the test product samples described in above Table 1 is summarized as follows.
Procedure for Measurement of Ammonia
The test was designed to determine the volatility of a fertilizer product when applied to the surface of the soil. The baseline, standard that used was one gram of urea. Each sample was placed in a sample flask which contained a pre-weighed amount of soil and water. The same source of soil was used in all testing. Humidified air was then passed over the sample to carry any ammonia which had volatilized by the enzymes in the soil, to a receiving flask. The receiving flask contained sulfuric acid which captured the ammonia. The receiving flask was then titrated to determine the amount of ammonia volatilized from each sample.
Mixed Methyl Red—Methylene Blue Indicator (150 mL): • Dissolve 0.2 g of methyl red in 100 mL of ethyl alcohol (70-95%). Dissolve 0.1 g methylene blue in 50 mL of ethyl alcohol (70-95%). Mix together. • Indicator was good for 30 days. Testing Apparatus: Manifold: • a. A manifold was constructed of ½ inch cpvc (chlorinated polyvinyl chloride). • b. The manifold has 22 ports with a needle valve for air flow adjustment. • c. The tubing from the manifold to the sample flask was connected to a 1/16 inch hose barb on the needle valve.
2. Air Supply: • a. The air was supplied by an air compressor with a regulator to control the pressure to the manifold. • b. The air goes through a rotameter with a control knob to adjust the flow to the manifold (A minimum of 70 volumes of the head space is in each sample flask during each sampling interval, often much higher. Head space refers to the air volume above the soil.). • c. The air from the rotameter goes through a bubbler containing 25% sulfuric acid solution. After the sulfuric acid bubbler is a knock out chamber to prevent any sulfuric acid mist from going further. • d. The air then goes to a water bubbler to hydrate the air before going through another knock out chamber before entering the manifold.
3. Sample Flask • a. The sample flask is a 250 mL Erlenmeyer flask. The tubing from the manifold is connected to the flask by a barb fitting in a rubber stopper. • b. Each sample flask contained 48 grams of soil (dried and sieved through a 12 mesh screen), 12 grams of water, and the equivalent of one gram of urea. The materials were added to the flasks in the order list to ensure that the sample was added to moist soil (20-25%).
4. Receiving Flask • a. The receiving flask is a 125 mL Erlenmeyer flask. Tubing from the stopper on the sample flask is connected to a glass sparger passing through a stopper to the receiving flask. • b. Each receiving flask contains 50 mL of 0.5N Sulfuric Acid. • c. The tip of the glass sparger is below the level of the acid to allow the air to bubble through the acid and capture any ammonia present. • d. The receiving flask is removed and replaced with flask containing fresh solution at the intervals of 3, 7 and 10 days.
5. Measurement of Ammonia • a. The contents of each receiving flask removed at the intervals of 3, 7 and 10 days were tested for ammonia according to the above described Procedure for Measurement of Ammonia. The first ten days are most critical and are sufficient to determine reliable comparative results. • b. […] Ammonia Volatilization Test Results for Products in Table 2

`N.O=P(O)(O)O` [MAP, monoammonium phosphate]: the “% Ammonia Released” value runs as follows: (Table 4 series, Day 0) 0%; (Table 4 series, Day 3) 0.74%; (Table 4 series, Day 7) 1.61%; (Table 4 series, Day 10) 2.09%.

Turning to `NC(N)=O` [Urea], the “% Ammonia Released” value is, setting by setting: (Table 2 series, Day 0) 0%; (Table 2 series, Day 3) 0.23%; (Table 2 series, Day 7) 72.29%; (Table 2 series, Day 10) 82.37%; (Table 3 series, Day 0) 0%; (Table 3 series, Day 3) 1.09%. Further, the “% Ammonia Released” value by setting is: (Table 3 series, Day 7) 38.83%; (Table 3 series, Day 10) 81.33%; (Table 4 series, Day 0) 0%; (Table 4 series, Day 3) 27.41%; (Table 4 series, Day 7) 88.77%; (Table 4 series, Day 10) 90.81%. Besides, the “% Ammonia Released” value (Table 5 series, Day 0) stood at 0%; the “% Ammonia Released” value (Table 5 series, Day 3) came to 0.05%; the “% Ammonia Released” value (Table 5 series, Day 7) turned out to be 40.35%; the “% Ammonia Released” value (Table 5 series, Day 10) is reported as 65.11%.
